Marks after values point to notes of the source that are not given here.
Columns and labels:
peripheral blood cells = assay: s.c. dose finding study, hematological analysis of peripheral blood
stem cells = conditions: mice (Broxmeyer 2005); cited from earlier work
[1] = clinical trials (CHMP Assessment Report); cited from earlier work
HGF = assay: s.c. dose finding study, HGF-ELISA; conditions: one hour after administration of AMD3100
[2] = AMD3100 5 mg/kg s.c., 1 hour, mean ± SEM

## c1cc(CN2CCCNCCNCCCNCC2)ccc1CN1CCCNCCNCCCNCC1 [AMD3100, 1,1′-[1,4-phenylenebis (methylene)]-bis-1,4,8,11-tetraazacyclotetradecane, reference compound]
Peripheral blood cells; [2]
  Basophils: 0.03 ± 0.0 10^9 cells/L
  Eosinophils: 0.3 ± 0.0* 10^9 cells/L
  LUC: 0.05 ± 0.0* 10^9 cells/L
  Leukocytes (WBC): 7.8 ± 0.6* 10^9 cells/L
  Lymphocytes: 5.3 ± 0.4 10^9 cells/L
  MPV: 8.0 ± 0.1
  Monocytes: 0.3 ± 0.0 10^9 cells/L
  Neutrophils: 1.8 ± 0.2* 10^9 cells/L
Peripheral blood cells; mouse, in vivo, sc, 5 mg/kg
  Erythrocytes: 8.0 ± 0.0*** 10^12 cells/L
  Hemoglobin: 112.5 ± 0.9
  MCHC: 332.0 ± 2.0 g/L
  MCV: 42.7 ± 0.6 fL
  Platelets: 706.8 ± 30.7** 10^9 cells/L
  Reticulocytes: 186.3 ± 23.7 10^9 cells/L
Stem cells
  time of peak in mobilized stem cells after plerixafor administration: 1 h
[1]
  HSCT patients who experienced infections after transplantation: 20-25%
HGF
  HGF levels: 650 ± 230 pg/mL

Reference: patent US10258642B2, “Dextran sulfate for use in mobilization of cells” (TX MEDIC AB, priority 2013, dated 2019)
